Measurements reported in patent publication US20230310445A1, “LOX ENZYME INHIBITING METHODS AND COMPOSITIONS” (ANOVIA BIOSCIENCES, INC., priority 2020, published 2023).

What was measured:
[1] = target: T1, Recombinant human LOXL2 (lysyl oxidase like 2) (Homo sapiens, UniProt Q9Y4K0); experiment: LOXL2 inhibition assay (fluorometric, cadaverine/Amplex Red/HRP); format: biochemical; settings: IC50 class; recombinant human LOXL2, cadaverine substrate; read-out: Activity Range LOXL2
T1 construct: purchased R&D systems
T1 sequence (Q9Y4K0 26-774): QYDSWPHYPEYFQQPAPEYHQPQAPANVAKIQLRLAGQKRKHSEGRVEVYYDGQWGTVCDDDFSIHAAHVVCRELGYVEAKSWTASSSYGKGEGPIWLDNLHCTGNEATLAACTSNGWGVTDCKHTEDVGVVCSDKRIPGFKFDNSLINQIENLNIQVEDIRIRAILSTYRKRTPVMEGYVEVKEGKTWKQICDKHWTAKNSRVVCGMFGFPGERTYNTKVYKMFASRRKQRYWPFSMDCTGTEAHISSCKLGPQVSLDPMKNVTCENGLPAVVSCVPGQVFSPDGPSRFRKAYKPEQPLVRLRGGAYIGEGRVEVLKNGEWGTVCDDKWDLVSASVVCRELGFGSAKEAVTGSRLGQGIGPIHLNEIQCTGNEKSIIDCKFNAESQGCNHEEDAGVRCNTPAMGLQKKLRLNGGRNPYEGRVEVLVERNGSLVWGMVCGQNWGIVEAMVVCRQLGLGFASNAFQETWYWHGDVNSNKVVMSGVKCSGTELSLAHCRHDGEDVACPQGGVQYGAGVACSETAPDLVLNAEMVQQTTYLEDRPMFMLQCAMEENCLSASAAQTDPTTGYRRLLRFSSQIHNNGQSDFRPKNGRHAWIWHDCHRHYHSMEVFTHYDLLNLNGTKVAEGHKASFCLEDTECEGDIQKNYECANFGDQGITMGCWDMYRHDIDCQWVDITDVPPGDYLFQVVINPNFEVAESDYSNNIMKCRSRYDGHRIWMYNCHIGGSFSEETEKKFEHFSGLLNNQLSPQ
How it was run: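 Both enzymes assayed in 1.2 M urea, 50 mM sodium borate pH 8.0, 10 mM CaCl, with 30 min compound–enzyme preincubation at 37° C before cadaverine/Amplex Red/HRP addition. Fluorescence followed 60 min at 37° C; linear-slope rates, background-subtracted, as % of DMSO control, fitted by 4-parameter variable-slope curve (bottom fixed at 0).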

[2] = target: T2, Recombinant human LOXL3 (lysyl oxidase like 3) (Homo sapiens, UniProt P58215); experiment: LOXL3 inhibition assay (fluorometric, cadaverine/Amplex Red/HRP); format: biochemical; settings: IC50 class; recombinant human LOXL3, cadaverine substrate; read-out: Activity Range LOXL3
T2 construct: purchased R&D systems
T2 sequence (P58215 26-753): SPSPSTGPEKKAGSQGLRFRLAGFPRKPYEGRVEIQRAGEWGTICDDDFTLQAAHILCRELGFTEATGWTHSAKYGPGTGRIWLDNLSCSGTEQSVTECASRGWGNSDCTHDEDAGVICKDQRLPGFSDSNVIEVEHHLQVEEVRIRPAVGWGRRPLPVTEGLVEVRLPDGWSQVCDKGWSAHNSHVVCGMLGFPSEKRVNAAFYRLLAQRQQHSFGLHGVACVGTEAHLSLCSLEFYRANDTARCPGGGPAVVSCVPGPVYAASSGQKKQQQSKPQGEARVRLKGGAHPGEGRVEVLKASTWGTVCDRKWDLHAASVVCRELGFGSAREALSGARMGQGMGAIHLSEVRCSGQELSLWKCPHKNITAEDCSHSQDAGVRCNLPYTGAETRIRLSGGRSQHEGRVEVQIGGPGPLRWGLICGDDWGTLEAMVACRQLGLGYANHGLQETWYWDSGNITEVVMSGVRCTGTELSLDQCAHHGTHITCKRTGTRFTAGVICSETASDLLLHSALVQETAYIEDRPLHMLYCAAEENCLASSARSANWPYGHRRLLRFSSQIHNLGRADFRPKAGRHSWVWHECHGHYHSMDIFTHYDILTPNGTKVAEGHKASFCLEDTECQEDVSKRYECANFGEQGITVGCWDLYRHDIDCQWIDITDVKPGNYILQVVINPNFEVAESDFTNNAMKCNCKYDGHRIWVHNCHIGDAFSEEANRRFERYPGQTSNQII
Procedure: The ability of compounds to inhibit one or more of the lysyl oxidases LOXL2 and/or LOXL3 was determined using a fluorometric assay. This assay measures the activity of lysyl oxidases by coupling the reaction with horseradish peroxidase-catalyzed […]. The activity assay protocol uses cadaverine as substrate that releases hydrogen peroxide upon transformation by the specific LOX family enzyme present in the sample. Hydrogen peroxide is in turn detected using a red fluorescence substrate for HRP-coupled reactions (Amplex Red Enzyme Assays, Thermo Scientific Fisher). This leads to increase in fluorescence that can be easily detected at Ex/Em=540/590 nm in a fluorescence microplate reader.
Enzymes: Recombinant human LOXL2 (lysyl oxidase like 2) and recombinant human LOXL3 (lysyl oxidase like 3) were purchased from R&D systems and assays were performed in 1.2 M urea, 50 mM sodium borate buffer pH 8.0, and 10 mM CaCl.
Reaction: Final concentration in the LOXL2 and LOXL3 assays were as following and performed in a total volume of […]:
Experimental procedure: 5 μl of freshly prepared reaction buffer were delivered to reaction wells. Compounds were resuspended in 100% DMSO at 10 mM and delivered into buffer using acoustic technology (Echo550; nanoliter range). A 3× solution of LOXL2 or LOXL3 in reaction buffer was prepared (“enzyme solution”) and 5 μL of enzyme solution was added into the reaction wells. Buffer only was added to column 1 for no protein control. Reactions were incubated for 30 minutes at 37° C. A 3×mixture of cadaverine, Amplex Red, and HRP (“Substrate/Detection Mix) was prepared and subsequently 5 μL of the mixture added to each reaction well. Progress of reactions was monitored for 60 minutes at 37° C. using Clariostar plate reader (ex 530-12, ems 600-40). For all activity assays, pan-LOX inhibitor CCT365623 (Tang et al, 2017) and LOXL2/LOXL3 inhibitor PAT-1251 (PharmaKea) were included as standards.
Data analysis: Slope of the linear portion of the progress curve was calculated using Clariostar software. Typical analysis interval was between 8-30 min, but varied between experiments. The background subtracted signals (No protein wells are considered as background) were converted to % activity relative to DMSO controls. Data was analyzed using GraphPad Prism 4 with “sigmoidal dose-response (variable slope)”; 4 parameters with Hill Slope. Constraints: Bottom=Constant equal to 0. Top=Must be less than 120.

| IC50 [1] [µM] | IC50 [2] [µM] | Compound |
| --- | --- | --- |
| 1 to 30 | > 30 | NCc1cccc(S(=O)(=O)N2C[C@H](C(=O)N3CCOCC3)C[C@@H](c3ccccc3)C2)n1 (racemic) [Example 114T, trans-(1-((6-(Aminomethyl)pyridin-2-yl)sulfonyl)-5-phenylpiperidin-3-yl)(morpholino)methanone 2,2,2-trifluoroacetate] |
| > 30 | > 30 | NCc1cccc(S(=O)(=O)N2C[C@@H](C(=O)N3CCS(=O)(=O)CC3)C[C@@H](c3ccccc3)C2)n1 (racemic) [Example 115, cis-(1-((6-(Aminomethyl)pyridin-2-yl)sulfonyl)-5-phenylpiperidin-3-yl)(1,1-dioxidothiomorpholino)methanone 2,2,2-trifluoroacetate] |
